US20250261637A1, “DISINFECTANT COMPOSITIONS AND METHODS THEREOF” (HALOMINE INC., priority 2022, published 2025)
Values belong to the compound of their own block, whether it stands above or below them.

Legend:
[1] = Chlorine stability of chlorinated HA and HASA55 solutions over 10 weeks (available chlorine, DPD); assay type: physicochemical
Experimental: (§1) Various aqueous electrophilic halogen solutions were used to dissolve HASA55 powder. Undiluted disinfexol stock solution was used as HOCl source, Clorox® germicidal bleach diluted 1:48 volumetrically was used as a NaOCl source, and a stock solution of Purtab prepared by dissolving 1 tablet in a quart of water was used as a NaDCC source. Various samples of HASA55 solutions chlorinated with HOCl, NaOCl, and NaDCC were prepared by dissolving HASA55 in the electrophilic halogen source solutions at stoichiometric molar ratios of 2:1, 1:1, 1:2, 1:4, and 1:8 HASA55:electrophilic halogen source for HOCl and NaOCl, and at stoichiometric molar ratios of 4:1, 2:1, 1:1, 1:2, and 1:4 HASA55:NaDCC. Various samples of HA monomers chlorinated with HOCl, NaOCl, and NaDCC were prepared by dissolving HA monomer in the electrophilic halogen source solutions at stoichiometric molar ratios of 2:1, 1:1, 1:2, 1:3, and 1:6 HA:electrophilic halogen source for HOCl and NaOCl, and at stoichiometric molar ratios of 4:1, 2:1, 1:1, 1:1.5, and 1:3 for HA:NaDCC. The resulting solutions were sealed and stored in air-tight bottles to assess the amount of available chlorine and the pH of the solution over time. Available chlorine concentrations were calculated according to a spectrophotometric method using a DPD indicator as detailed above and pH was calculated using a pH meter.

[2] = pH of chlorinated HA and HASA55 solutions over time; assay type: physicochemical; conditions: HOCl series, 10 weeks
Experimental: as §1

S. aureus [3] = test: MIC testing of chlorinated HASA; assay type: cell-based, Staphylococcus aureus; conditions: for MIC: Staphylococcus aureus
Experimental: (§2) NaDCC, NaOC, HOC, and HASA-Cl solutions were prepared at chlorine concentrations of 300, 250, 200, 150, 100, and 50 ppm and mixed with a S. aureus suspension containing […] as an organic load for 30 seconds. After 30 seconds, the mixtures were neutralized with Na2S2O3 to quench oxidative chlorine, added to tryptic soy broth (TSB), and incubated (e.g., for 48 hours at 37° C.). Following the incubation, samples were assessed for S. aureus growth inhibition to determine the minimum inhibitory concentration (MIC). […] To determine the minimum biocidal concentration (MBC), samples were plated on agar and viable colonies counted. […] The analysis was run in duplicate with a 8.34 log inoculum concentration of S. aureus in the first analysis and a 8.37 log inoculum concentration of S. aureus in the second analysis.
(§3) NaDCC, NaOCl, HOC, and HASA-Cl solutions were prepared at chlorine concentrations of 800, 700, 600, 500, 400, 300, 200, and 100 ppm and mixed with a suspension of S. aureus containing 10% FBS or 15% as an organic load and reacted for 1 minute or 5 minutes. After reacting, the mixtures were neutralized with Na2S2O3 to quench oxidative chlorine, added to tryptic soy broth (TSB), and incubated (e.g., for 48 hours at 37° C.). Following the incubation, samples were assessed for S. aureus growth inhibition to determine the MIC. […] To determine the MBC, samples were plated on agar and viable colonies counted. […] The analysis was run in duplicate with a 8.23 log inoculum concentration of S. aureus.
(§4) Three solutions of HASA-Cl (HASA-Cl_D, HASA-Cl_E, and HASA-Cl_F) were prepared by chlorinating HASA55 in aqueous HOCl at varying HASA55:chlorine stoichiometric molar ratios, isolating the chlorinated HASA55-Cl polymer, and dissolving the chlorinated polymer in water. The three HASA-Cl solutions and HASA-HOCl, NaDCC, NaOCl, and HOCl solutions were diluted to chlorine concentrations of 300, 250, 200, 150, 100, and 50 ppm, mixed with a suspension of S. aureus with 5% FBS organic load, and reacted for 30 seconds. After reacting, the mixtures were neutralized to remove oxidative chlorine, added to tryptic soy broth, and incubated (e.g. for 48 hours at 37° C.). Following the incubation, samples were assessed for S. aureus growth inhibition to determine the MIC. To determine the MBC, samples were plated on agar and viable colonies counted. […] The analysis was run in duplicate with a 8.34 log inoculum concentration of S. aureus in the first experiment and a 8.37 log inoculum concentration of S. aureus in the second experiment.

S. aureus [4] = test: MBC testing of chlorinated HASA; assay type: cell-based, Staphylococcus aureus; conditions: for MBC: Staphylococcus aureus
Experimental: as §2, §3, §4

[5] = Residual chlorine content of dried chlorinated N-halamine coatings on SS304 coupons; assay type: physicochemical; conditions: for Estimated residual Cl (%): SS304 coupon
Experimental: HASA-Cl solutions were prepared according to procedures detailed in EXAMPLE 6 above. Stainless steel 304 (SS304) coupons with a dimension of 1″×1″ and thickness of 0.024″ were scrubbed with a sponge and 1% detergent (e.g., Liquinox®), rinsed with deionized water, and dried. To the dried SS304 coupons, a 1 mL sample of a HASA-Cl, HA-Cl, or electrophilic halogen solution was pipetted using a micropipette without rinsing or wiping the coupon after pipetting. The sample coupons coated with HASA-Cl HA-Cl, and electrophilic halogen sources, were stored at ambient temperature and humidity with indoor light exposure. […] HASA/HOCl solutions with high stoichiometric molar amounts of HASA (2:1 HASA:HOCl and 1:1 HASA:HOCl) formed coatings with a flaked dried polymer appearance, while the other solutions formed coatings with a stain-like appearance with a majority of the SS304 base substrate exposed.
To extract chlorine from the surface of a SS304 sample coupon, a sample coupon was added to a centrifuge tube containing 20 mL of deionized water, 200 mg of K1, and 10 drops of 4N acetic acid. The mixture containing the sample coupon was mixed by shaking (e.g. at 120 rpm for 10 minutes), and solution removed and added to a glass sample cell for analysis by spectrophotometry with a DPD indicator according to the procedure detailed above. The amount of chlorine was calculated against a chlorine standard curve. Chlorine density was calculated according to the following formula: […]
The bars are presented in the order Day 1, Day 2, Day 3, Day 7, and Day 28. […] At 28 days, the chlorine density of HASA/HOCl and HA/HOCl solutions decreased, to around half of the Day 1 chlorine density. […] Estimated residual chlorine percentages were calculated from the ratio of the amount of chlorine retrieved from the dried coating over the amount of chlorine deposited in the 1 mL solution. TABLE 19 summarizes the estimated residual chlorine percentages of HA/HOCl and HASA/HOCl solutions over the 28 days. Estimated residual chlorine percentages were stable for up to 1 week for HASA/HOCl solutions with stoichiometric molar ratios of HASA:HOCl higher than 1:2, aligning with the chlorine density data.

[6] = 5% FBS organic load, 30 seconds (Table 18)
[7] = Exp 1, 5 FBS organic load, 30 seconds, 8.34 log inoculum, ppm chlorine
[8] = Exp 2, 5 FBS organic load, 30 seconds, 8.37 log inoculum
[9] = Exp 1, 5 FBS organic load, 30 seconds, 8.34 log inoculum

chlorine loss (in words) ([1]; HOCl series, 10 week period): lowest chlorine loss | available chlorine ([1]; HOCl series, Day 0): 707 mg/L | available chlorine ([1]; HOCl series, W 0): 727 mg/L | available chlorine ([1]; HOCl series, W 4): 687 mg/L | available chlorine ([1]; HOCl series, W 6): 637 mg/L | available chlorine ([1]; HOCl series, W 10): 607 mg/L | available chlorine ([1]; NaOCl series, Day 0): 1443 | available chlorine ([1]; NaOCl series, W 1): 1447 | available chlorine ([1]; NaOCl series, W 3): 1443 | available chlorine ([1]; NaOCl series, W 6): 1520 | available chlorine ([1]; NaOCl series, W 10): 1537 | pH over time (in words) [2]: stable pH | MIC value (S. aureus [3]; [6]): 150 ppm | MIC value (S. aureus [3]; 10% FBS, 1 min): 300 ppm | MIC value (S. aureus [3]; 10% FBS, 5 min): 100 ppm | MIC value (S. aureus [3]; 15% FBS, 1 min): 300 ppm | MIC value (S. aureus [3]; 15% FBS, 5 min): 200 ppm | MIC value (S. aureus [3]; [7]): 150 ppm | MIC value (S. aureus [3]; [8]): 100 ppm | Estimated residual Cl (%) ([5]; 1 mL deposited, Day 1): 0.1% | Estimated residual Cl (%) ([5]; Day 2): 0.2% | Estimated residual Cl (%) ([5]; Day 3): 0.3% | Estimated residual Cl (%) ([5]; Day 7): 0.1% | Estimated residual Cl (%) ([5]; Day 28): 0.2% | residual chlorine density (in words) ([5]; SS304 coupons, Day 1): no residual chlorine density
Structure (SMILES): OCl [HOCl, hypochlorous acid]
MBC value (S. aureus [4]; [6]): 150 ppm | MBC value (S. aureus [4]; 10% FBS, 1 min): 300 ppm | MBC value (S. aureus [4]; 10% FBS, 5 min): 200 ppm | MBC value (S. aureus [4]; 15% FBS, 1 min): 300 ppm | MBC value (S. aureus [4]; 15% FBS, 5 min): 300 ppm | MBC value (S. aureus [4]; [9]): 150 ppm | MBC value (S. aureus [4]; [8]): 100 ppm

chlorine levels and pH over time (in words) ([1]; NaOCl series): no chlorine loss and no change in pH | MIC (S. aureus [3]; [6]): 200 µg/mL | MIC (S. aureus [3]; 1 min, 10% FBS): 400 µg/mL | MIC (S. aureus [3]; 1 min, 15% FBS): 500 µg/mL | MIC (S. aureus [3]; 5 min, 10% FBS): 100 µg/mL | MIC (S. aureus [3]; 5 min, 15% FBS): 100 µg/mL | MIC (S. aureus [3]; [7]): 100 µg/mL | MIC (S. aureus [3]; [8]): 100 µg/mL
Structure (SMILES): OCl [NaOCl, sodium hypochlorite]
MBC value (S. aureus [4]; [8]): 250 ppm | MBC (S. aureus [4]; [6]): 200 µg/mL | MBC (S. aureus [4]; 1 min, 10% FBS): 400 µg/mL | MBC (S. aureus [4]; 1 min, 15% FBS): 500 µg/mL | MBC (S. aureus [4]; 5 min, 10% FBS): 200 µg/mL | MBC (S. aureus [4]; 5 min, 15% FBS): 400 µg/mL | MBC (S. aureus [4]; [9]): 200 µg/mL

Structure (SMILES): O=c1nc([O-])n(Cl)c(=O)n1Cl.[Na+] [NaDCC, sodium dichloroisocyanurate]
available chlorine over time (in words) ([1]; NaDCC series, 6-week time period): low available chlorine levels | available chlorine ([1]; NaDCC series, Day 0): 1120 | available chlorine ([1]; NaDCC series, W 1): 967 | available chlorine ([1]; NaDCC series, W 3): 753 | available chlorine ([1]; NaDCC series, W 6): 530 | available chlorine ([1]; NaDCC series, W 10): 330 | MIC value (S. aureus [3]; [6]): 100 ppm | MIC value (S. aureus [3]; 10% FBS, 1 min): 200 ppm | MIC value (S. aureus [3]; 10% FBS, 5 min): 200 ppm | MIC value (S. aureus [3]; 15% FBS, 1 min): 300 ppm | MIC value (S. aureus [3]; 15% FBS, 5 min): 200 ppm | MIC value (S. aureus [3]; [7]): 150 ppm | MIC value (S. aureus [3]; [8]): 100 ppm | MBC value (S. aureus [4]; [6]): 150 ppm | MBC value (S. aureus [4]; 10% FBS, 1 min): 200 ppm | MBC value (S. aureus [4]; 10% FBS, 5 min): 200 ppm | MBC value (S. aureus [4]; 15% FBS, 1 min): 300 ppm | MBC value (S. aureus [4]; 15% FBS, 5 min): 200 ppm | MBC value (S. aureus [4]; [9]): 150 ppm | MBC value (S. aureus [4]; [8]): 150 ppm
